Results on 14 compounds are retold here after ChEMBL document CHEMBL3351320, “Discovery of novel tetrahydroisoquinoline derivatives as orally active N-type calcium channel blockers with high selectivity for hERG potassium channels” (Bioorg Med Chem, 2014).

Data set [1] is described as follows: Inhibition of N-type calcium channel in human IMR-32 cells assessed as intracellular calcium concentration by FLIPR. The format is cell-based. A general note: Calcium assays in cells follow changes in intracellular calcium, usually with a dye or a luminescent sensor.
The target in the next data set is hERG (KCNH2) (Homo sapiens, UniProt Q12809). Briefly: Inhibition of human ERG expressed in CHO cells at 10 uM by Rb efflux assay. The format is cell-based. As to conditions: CHO cells expressing human ERG.
For the next data set, the system named is IMR-32. In words: Selectivity ratio of IC50 for human ERG to IC50 for N-type calcium channel in human IMR-32 cells. The format is cell-based.
The target of data set [2] is Voltage-gated inwardly rectifying potassium channel KCNH2 (Homo sapiens, UniProt Q12809). Briefly: Inhibition of human ERG expressed in CHO cells by Rb efflux assay.
The nature of data set [3]: Inhibition of N-type calcium channel in human IMR-32 cells under holding potential at -70 mV inactivated state by whole cell patch-clamp electrophysiological method. For orientation: Patch clamp records ionic current or voltage across a cell membrane.
In data set [4] the test system is Rattus norvegicus. Briefly: Antiallodynic activity in Sprague-Dawley rat spinal nerve ligation model of neuropathic pain assessed as maximal reduction in mechanical allodynia at 30 mg/kg, po. Format: functional, organism-based. More on the design: dose 30 mg/kg.
A short description of data set [5]: Inhibition of N-type calcium channel in human IMR-32 cells under holding potential at -90 mV state-biased condition by whole cell patch-clamp electrophysiological method.
The subject of data set [6] is Rattus norvegicus. In words: Antiallodynic activity in Sprague-Dawley rat spinal nerve ligation model of neuropathic pain assessed as reduction in mechanical allodynia at 3 to 30 mg/kg, po. Format: functional, organism-based.
Data set [7] in a line: Aqueous solubility in Japanese Pharmacopoeia at pH 6.8. Format: physicochemical. Conditions: aqueous Japanese Pharmacopoeia medium, pH 6.8, pH 6.8.
Data set [8] is described as follows: Aqueous solubility in Japanese Pharmacopoeia at pH 1.2. Format: physicochemical. Conditions: aqueous Japanese Pharmacopoeia medium, pH 1.2, pH 1.2.
The target in a further data set is T1, Cytochrome P450 1A2 (Homo sapiens, UniProt P05177).
T1 sequence (P05177 whole entry): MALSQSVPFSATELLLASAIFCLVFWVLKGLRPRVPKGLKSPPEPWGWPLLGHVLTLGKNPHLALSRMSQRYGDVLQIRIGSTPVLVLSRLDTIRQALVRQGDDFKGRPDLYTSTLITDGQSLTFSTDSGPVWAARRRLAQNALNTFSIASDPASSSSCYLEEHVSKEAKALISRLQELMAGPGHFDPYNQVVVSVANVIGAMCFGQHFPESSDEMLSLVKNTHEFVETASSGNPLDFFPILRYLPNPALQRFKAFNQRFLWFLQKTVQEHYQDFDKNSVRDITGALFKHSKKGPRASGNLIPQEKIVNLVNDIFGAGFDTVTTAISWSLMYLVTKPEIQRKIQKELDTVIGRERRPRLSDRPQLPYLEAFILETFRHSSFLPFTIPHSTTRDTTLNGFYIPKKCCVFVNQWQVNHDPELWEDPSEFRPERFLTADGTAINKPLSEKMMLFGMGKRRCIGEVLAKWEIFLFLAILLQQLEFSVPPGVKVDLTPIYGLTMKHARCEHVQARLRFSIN
In words: Inhibition of human recombinant CYP1A2 after 15 mins.

The target of the next data set is Cytochrome P450 2C19 (Homo sapiens, UniProt P33261). In words: Inhibition of human recombinant CYP2C19 after 30 mins.
A further data set has as its target Cytochrome P450 2C9 (Homo sapiens, UniProt P11712). Briefly: Inhibition of human recombinant CYP2C9 after 45 mins.
In a further data set the target is CYP3A4 (Homo sapiens, UniProt P08684). In words: Inhibition of CYP3A4 in human liver microsomes assessed as residual activity assessed as residual activity using midazolam as substrate preincubated for 30 mins by LC/MS/MS analysis. Conditions: probe midazolam. On the technique in general: Liver microsomes are a subcellular fraction often used to study metabolism.

A further data set has as its target Cytochrome P450 2D6 (Homo sapiens, UniProt P10635). Briefly: Inhibition of human recombinant CYP2D6 after 30 mins.

Activity calls are given as the source filed them. No cut-off for these calls is given here.

Voltage-gated inwardly rectifying potassium channel KCNH2, sequence (Q12809 whole entry): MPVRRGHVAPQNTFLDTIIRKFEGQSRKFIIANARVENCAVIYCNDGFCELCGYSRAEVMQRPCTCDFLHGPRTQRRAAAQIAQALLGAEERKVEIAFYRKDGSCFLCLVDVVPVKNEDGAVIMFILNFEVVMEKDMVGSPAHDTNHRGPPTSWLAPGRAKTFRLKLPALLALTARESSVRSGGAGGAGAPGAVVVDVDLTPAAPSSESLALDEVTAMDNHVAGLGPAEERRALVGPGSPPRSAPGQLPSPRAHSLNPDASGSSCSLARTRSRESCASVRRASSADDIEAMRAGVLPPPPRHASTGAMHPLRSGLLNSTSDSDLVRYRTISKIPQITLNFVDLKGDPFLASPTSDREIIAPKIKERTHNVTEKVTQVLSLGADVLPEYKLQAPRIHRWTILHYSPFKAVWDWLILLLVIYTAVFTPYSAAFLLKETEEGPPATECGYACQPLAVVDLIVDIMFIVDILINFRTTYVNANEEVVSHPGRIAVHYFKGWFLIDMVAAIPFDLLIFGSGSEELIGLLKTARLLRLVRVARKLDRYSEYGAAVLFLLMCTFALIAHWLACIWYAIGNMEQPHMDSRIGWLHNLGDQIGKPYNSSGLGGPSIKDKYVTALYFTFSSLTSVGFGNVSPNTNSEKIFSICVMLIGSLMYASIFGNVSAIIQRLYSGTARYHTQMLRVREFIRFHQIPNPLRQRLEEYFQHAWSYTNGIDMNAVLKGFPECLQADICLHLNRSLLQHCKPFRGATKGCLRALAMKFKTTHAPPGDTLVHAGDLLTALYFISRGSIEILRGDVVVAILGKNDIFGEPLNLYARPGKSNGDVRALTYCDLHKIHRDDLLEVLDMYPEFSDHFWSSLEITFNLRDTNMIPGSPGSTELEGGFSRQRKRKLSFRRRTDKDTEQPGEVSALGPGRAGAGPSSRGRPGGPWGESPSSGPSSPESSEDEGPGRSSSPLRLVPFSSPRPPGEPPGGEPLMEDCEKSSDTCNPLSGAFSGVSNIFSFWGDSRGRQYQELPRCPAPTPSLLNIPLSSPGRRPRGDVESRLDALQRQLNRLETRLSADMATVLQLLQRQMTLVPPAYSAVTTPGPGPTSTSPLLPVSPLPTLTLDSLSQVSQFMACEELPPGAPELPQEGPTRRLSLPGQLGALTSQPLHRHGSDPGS
hERG (KCNH2), sequence (Q12809 whole entry): as above
Cytochrome P450 2C9, sequence (P11712 whole entry): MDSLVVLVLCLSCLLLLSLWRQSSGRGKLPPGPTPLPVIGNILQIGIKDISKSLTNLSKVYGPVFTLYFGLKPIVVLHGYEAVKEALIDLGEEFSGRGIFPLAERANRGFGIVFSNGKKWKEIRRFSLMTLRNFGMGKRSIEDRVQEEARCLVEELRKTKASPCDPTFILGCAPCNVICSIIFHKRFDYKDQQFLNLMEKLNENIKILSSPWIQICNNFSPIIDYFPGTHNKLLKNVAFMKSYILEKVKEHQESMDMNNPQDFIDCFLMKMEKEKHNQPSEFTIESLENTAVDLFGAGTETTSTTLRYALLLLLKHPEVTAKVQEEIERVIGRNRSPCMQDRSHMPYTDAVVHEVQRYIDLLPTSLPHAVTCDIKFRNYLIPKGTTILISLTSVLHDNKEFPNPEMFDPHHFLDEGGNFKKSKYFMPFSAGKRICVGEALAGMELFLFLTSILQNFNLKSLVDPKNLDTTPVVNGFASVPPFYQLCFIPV
CYP3A4, sequence (P08684 whole entry): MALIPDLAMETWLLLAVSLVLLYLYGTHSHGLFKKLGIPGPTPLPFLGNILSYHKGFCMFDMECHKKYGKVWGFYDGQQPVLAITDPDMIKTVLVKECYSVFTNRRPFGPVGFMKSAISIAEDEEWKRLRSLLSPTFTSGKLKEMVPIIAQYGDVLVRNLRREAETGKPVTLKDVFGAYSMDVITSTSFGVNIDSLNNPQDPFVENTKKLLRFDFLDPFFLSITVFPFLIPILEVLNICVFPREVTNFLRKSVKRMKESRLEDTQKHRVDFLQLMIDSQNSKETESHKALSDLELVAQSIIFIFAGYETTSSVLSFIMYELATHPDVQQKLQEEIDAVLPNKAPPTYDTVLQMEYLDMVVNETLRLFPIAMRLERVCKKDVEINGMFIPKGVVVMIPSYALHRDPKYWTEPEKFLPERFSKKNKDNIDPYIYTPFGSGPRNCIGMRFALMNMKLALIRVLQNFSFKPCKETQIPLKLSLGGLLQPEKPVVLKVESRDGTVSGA
Cytochrome P450 2C19, sequence (P33261 whole entry): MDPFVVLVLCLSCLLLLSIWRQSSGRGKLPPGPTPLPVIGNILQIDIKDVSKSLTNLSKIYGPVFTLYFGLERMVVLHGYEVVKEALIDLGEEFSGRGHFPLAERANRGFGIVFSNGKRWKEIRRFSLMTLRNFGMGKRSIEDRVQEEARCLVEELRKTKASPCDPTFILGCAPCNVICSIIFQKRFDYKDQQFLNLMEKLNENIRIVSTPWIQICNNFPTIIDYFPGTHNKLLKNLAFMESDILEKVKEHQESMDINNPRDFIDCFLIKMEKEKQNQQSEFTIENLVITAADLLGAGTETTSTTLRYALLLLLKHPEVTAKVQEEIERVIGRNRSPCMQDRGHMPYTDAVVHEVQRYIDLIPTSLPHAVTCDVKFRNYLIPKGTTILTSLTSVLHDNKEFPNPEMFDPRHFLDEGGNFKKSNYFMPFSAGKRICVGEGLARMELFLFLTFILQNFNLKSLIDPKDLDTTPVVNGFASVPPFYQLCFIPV
Cytochrome P450 2D6, sequence (P10635 whole entry): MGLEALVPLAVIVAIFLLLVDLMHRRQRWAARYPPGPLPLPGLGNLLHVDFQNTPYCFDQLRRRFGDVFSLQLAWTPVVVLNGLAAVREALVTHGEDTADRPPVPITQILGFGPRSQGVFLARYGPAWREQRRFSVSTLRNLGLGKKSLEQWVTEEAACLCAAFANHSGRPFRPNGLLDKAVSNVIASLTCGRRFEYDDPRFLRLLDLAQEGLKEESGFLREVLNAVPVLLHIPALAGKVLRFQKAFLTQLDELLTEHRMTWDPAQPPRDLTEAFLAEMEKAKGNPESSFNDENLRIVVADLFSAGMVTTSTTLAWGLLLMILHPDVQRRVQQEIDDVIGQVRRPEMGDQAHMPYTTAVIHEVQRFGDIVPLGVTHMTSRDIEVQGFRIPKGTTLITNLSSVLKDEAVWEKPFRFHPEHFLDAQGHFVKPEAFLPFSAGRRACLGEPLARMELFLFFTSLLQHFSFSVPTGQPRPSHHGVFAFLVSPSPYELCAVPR

As to `O=C(O)c1ccc(CCNCC(=O)N2CCc3ccccc3C2C2CCCCC2)cc1` (stereo unspecified), the IC50 in data set [1] is over 10000 nM. The same compound yielded an inhibition at 10 µM on hERG (KCNH2) of 9%.

Regarding `O=C(CNCC1CCCCC1)N1CCc2ccccc2C1C1CCCCC1` (stereo unspecified), the Ratio IC50 in the data set with IMR-32 stood at 20. In addition, the IC50 in data set [1] was 1300 nM; in data set [2] it was 26000 nM.

As for `O=C(CNCC1(O)CCCCCC1)N1CCc2ccccc2C1C1CCCCC1` (stereo unspecified), the Ratio IC50 in the data set on IMR-32 is 19.6. The values for the IC50 in [1] and in data set [2] were 2600 nM and 50100 nM, respectively.

Turning to `O=C(CNCC1(O)CCCCC1)N1CCc2ccccc2[C@@H]1C1CCCCC1`, the IC50 was 1000 nM in [1], 1700 nM in [3] and 12700 nM in [5]. In addition, the inhibition result in the data set with Rattus norvegicus [4] and with Rattus norvegicus [6] was “Active” in each case.

With `O=C(CNCC1(O)CCCC1)N1CCc2ccccc2C1C1CCCCC1` (stereo unspecified), the Ratio IC50 in the data set with IMR-32 came to 28.1. The IC50 in [1] was 2800 nM; in data set [2], 78600 nM.

With `O=C(CNCCc1ccccc1)N1CCc2ccccc2C1C1CCCCC1` (stereo unspecified), the IC50 in [1] was 1300 nM. The same compound had an inhibition at 10 µM against hERG (KCNH2) of 57.8%.

Take `O=C(CNCCc1c(Cl)cccc1Cl)N1CCc2ccccc2C1C1CCCCC1` (stereo unspecified): the IC50 in data set [1] is 2400 nM.

Consider `COC(=O)c1ccc(CCNCC(=O)N2CCc3ccccc3C2C2CCCCC2)cc1` (stereo unspecified), for which, in [1], the IC50 was found to be 2300 nM. For the same compound, the inhibition at 10 µM at hERG (KCNH2) worked out at 71.7%.

`COc1c(OC(C)(C)C)cc(CN2CC(=O)N(CCCCCC(c3ccc(F)cc3)c3ccc(F)cc3)CC2=O)cc1OC(C)(C)C`: the IC50 in data set [1] was 430 nM; in data set [2] it was over 100000 nM. Moreover, the solubility in data set [7] and in [8] was under 1 µM throughout.

For `COc1ccccc1CCNCC(=O)N1CCc2ccccc2C1C1CCCCC1` (stereo unspecified), the IC50 on Cytochrome P450 1A2 is 26000 nM; in data set [1], 600 nM; at Cytochrome P450 2C19, 3000 nM; on Cytochrome P450 2C9, 4800 nM; at Cytochrome P450 2D6 it was 370 nM. The solubility in data set [7] and in [8] was over 100 µM throughout. Besides, the activity at 30 min at CYP3A4 was determined as 53%.

For `O=C(CNCCc1ccccc1O)N1CCc2ccccc2C1C1CCCCC1` (stereo unspecified), the IC50 in data set [1] amounted to 3000 nM. On hERG (KCNH2), 10 µM produced 54.4% inhibition.

For the compound `COc1cc(CN2CCN(CCCCCC(c3ccc(F)cc3)c3ccc(F)cc3)CC2)cc(OC)c1OC`, the IC50 in data set [1] was determined as 1100 nM; in [2], 3400 nM. Moreover, the solubility is under 1 µM in data set [7] and over 100 µM in data set [8].

For `O=C(CNCC1(O)CCCCC1)N1CCc2ccccc2[C@H]1C1CCCCC1`, the IC50 in data set [1] is 1500 nM.

As to `O=C(CNCCC1(O)CCCCC1)N1CCc2ccccc2C1C1CCCCC1` (stereo unspecified), the IC50 in data set [1] is 1700 nM.

As usually defined, the IC50 is the concentration at which inhibition is half-maximal. By inhibition is commonly meant the change of the read-out against control, counted positive when it falls. The term solubility denotes how much of the substance goes into solution per volume. Higher therefore signals much dissolved substance.
